Data on 15 compounds can be found in ChEMBL document CHEMBL1147422, “Synthesis and antitumor activity of 10-substituted benzylidene anthrone” (2004).

For test [1], the system named is A549. Put plainly: Inhibition ratio against A-549 cancer cell growth at a concentration of 10e-4 mol/L. The format is functional, Homo sapiens.
Test [2] relates to A549. Put plainly: Inhibition ratio against A-549 cancer cell growth at a concentration of 10e-5 mol/L. Type of test: functional, Homo sapiens.
Test [3] has as its system A549. Put plainly: Inhibition ratio against A-549 cancer cell growth at a concentration of 10e-6 mol/L. The format is functional, Homo sapiens.
Test [4] has as its system A549. Put plainly: Inhibition ratio against A-549 cancer cell growth at a concentration of 10e-7 mol/L. The format is functional, Homo sapiens.
The subject of test [5] is A549. Put plainly: Inhibition ratio against A-549 cancer cell growth at a concentration of 10e-8 mol/L. The format is functional, Homo sapiens.
Test [6] deals with P388. Put plainly: Inhibition ratio against P-388 cancer cell growth at a concentration of 10e-4 mol/L. Type of test: functional, Mus musculus.
The test system of test [7] is P388. Put plainly: Inhibition ratio against P-388 cancer cell growth at a concentration of 10e-5 mol/L. The format is functional, Mus musculus.
Test [8] deals with P388. Put plainly: Inhibition ratio against P-388 cancer cell growth at a concentration of 10e-6 mol/L. The format is functional, Mus musculus.
Test [9] concerns P388. Nature of the test: Inhibition ratio against P-388 cancer cell growth at a concentration of 10e-7 mol/L. The format is functional, Mus musculus.
Test [10] relates to P388. Nature of the test: Inhibition ratio against P-388 cancer cell growth at a concentration of 10e-8 mol/L. The format is functional, Mus musculus.

As to `O=C1c2ccccc2C(=Cc2ccccc2)c2ccccc21`, the Ratio amounted to 95.4 in the test on A549 [1]; 79.9 in the test on A549 [2]; 9.8 in the test with A549 [3]; 1 in the test with A549 [4]; 4.4 in the test with A549 [5]; 97.8 with P388 [6]. For the same compound, the Ratio in the test on P388 [7] is reported as 56.2; in the test on P388 [8] it was 17.8; in the test with P388 [9], 0; in the test with P388 [10], 2.7.

For the compound `COc1ccc(C=C2c3ccccc3C(=O)c3ccccc32)cc1`, the Ratio with A549 [1] amounted to 90; in the test on A549 [2], 84.7; with A549 [3], 87; in the test on A549 [4], 85.4; with A549 [5] it was 84.8; with P388 [6], 76.7. Besides, the Ratio in the test on P388 [7] turned out to be 72.5; with P388 [8] it was 76.5; in the test on P388 [9] it was 64.3; in the test with P388 [10] it was 75.5.

As for `COc1cccc(C=C2c3ccccc3C(=O)c3ccccc32)c1`, the Ratio in the test on A549 [1] is 95.8; in the test on A549 [2], 92.5; in the test on A549 [3], 25.1; with A549 [4] it was 38.1; in the test with A549 [5], 6.2; in the test on P388 [6], 96. The Ratio is recorded as 48.2 in the test with P388 [7], 27.2 with P388 [8], 7.1 with P388 [9] and 1 in the test on P388 [10].

As to `O=C1c2ccccc2C(=Cc2ccc(Cl)cc2)c2ccccc21`, the Ratio in the test on A549 [1] stood at 96; in the test with A549 [2], 87.3; in the test on A549 [3], 41.9; with A549 [4] it was 33.6; with A549 [5], 41.7; with P388 [6] it was 70. Further, the Ratio in the test with P388 [7] was determined as 36; in the test on P388 [8], 3.9; in the test with P388 [9], 2.8; in the test with P388 [10], 4.4.

Consider `O=C1c2ccccc2C(=Cc2ccc(F)cc2)c2ccccc21`, for which the Ratio in the test with A549 [1] was found to be 96.8; in the test on A549 [2], 88.2; in the test with A549 [3] it was 56.5; with A549 [4] it was 18.5; in the test on A549 [5], 49.2; in the test with P388 [6], 83.3. The Ratio stood at 31.4 with P388 [7], 18.4 in the test on P388 [8], 10.3 in the test on P388 [9] and 5.2 in the test with P388 [10].

For the compound `COc1ccc(C=C2c3ccccc3C(=O)c3ccccc32)cc1OC`, the Ratio in the test on A549 [1] was 95.7; in the test on A549 [2] it was 92.8; in the test with A549 [3], 87; in the test with A549 [4], 90.6; in the test on A549 [5] it was 81.7; in the test on P388 [6], 95.7. Further, the Ratio with P388 [7] is recorded as 80.2; with P388 [8], 56; with P388 [9], 53.6; in the test with P388 [10], 50.9.

Turning to `COc1ccccc1C=C1c2ccccc2C(=O)c2ccccc21`, the Ratio with A549 [1] came out at 89.3; in the test with A549 [2], 81.7; in the test with A549 [3] it was 85.7; in the test with A549 [4], 86.8; in the test on A549 [5] it was 66.3; in the test with P388 [6], 82.2. Further, the Ratio in the test on P388 [7] worked out at 76.1; with P388 [8] it was 55.4; with P388 [9], 47; in the test on P388 [10], 32.7.

In the case of `Cc1cccc(C=C2c3ccccc3C(=O)c3ccccc32)c1`, the Ratio in the test on A549 [1] stood at 93; in the test on A549 [2], 18.2; in the test on A549 [3] it was 0; with A549 [4], 0; in the test on A549 [5] it was 0; in the test with P388 [6], 53.3. Moreover, the Ratio turned out to be 7.2 in the test on P388 [7], 0 in the test on P388 [8], 0 in the test with P388 [9] and 0 in the test on P388 [10].

For the compound `O=C1c2ccccc2C(=Cc2ccccc2O)c2ccccc21`, the Ratio is 96.3 with A549 [1]; 94.8 with A549 [2]; 89.3 with A549 [3]; 83 in the test on A549 [4]; 85.2 in the test with A549 [5]; 95.6 in the test on P388 [6]. The Ratio worked out at 88.2 with P388 [7], 65.8 with P388 [8], 44.9 with P388 [9] and 38.5 in the test with P388 [10].

With `O=C1c2ccccc2C(=Cc2ccc(O)cc2)c2ccccc21`, the Ratio in the test with A549 [1] is given as 92.9; with A549 [2], 87; in the test on A549 [3], 87.2; in the test with A549 [4], 88.7; in the test with A549 [5], 60; in the test on P388 [6] it was 100. The Ratio in the test on P388 [7] is listed as 72; with P388 [8] it was 41.6; in the test on P388 [9], 27.1; in the test with P388 [10], 42.8.

`Cc1ccccc1C=C1c2ccccc2C(=O)c2ccccc21`: the Ratio with A549 [1] is given as 90.9; in the test on A549 [2] it was 84.8; in the test with A549 [3], 18.5; with A549 [4], 0; in the test with A549 [5], 5.7; in the test on P388 [6], 84.1. Moreover, the Ratio was 42.4 in the test with P388 [7], 24.9 in the test on P388 [8], 8 in the test on P388 [9] and 13.1 with P388 [10].

In the case of `O=C1c2ccccc2C(=Cc2ccccc2Cl)c2ccccc21`, the Ratio in the test with A549 [1] is listed as 89.9; with A549 [2], 53; in the test on A549 [3], 0.3; in the test on A549 [4] it was 6; in the test with A549 [5], 5.9; in the test with P388 [6], 58.4. Also, the Ratio amounted to 23.7 with P388 [7], 0 with P388 [8], 0 in the test on P388 [9] and 0 with P388 [10].

As for `O=C1c2ccccc2C(=Cc2cccc([N+](=O)[O-])c2)c2ccccc21`, the Ratio turned out to be 96 in the test with A549 [1]; 91.8 with A549 [2]; 12.4 in the test on A549 [3]; 7.7 in the test on A549 [4]; 13.2 with A549 [5]; 89.8 with P388 [6]. Further, the Ratio with P388 [7] was found to be 55.8; with P388 [8] it was 23.9; with P388 [9], 22.1; in the test on P388 [10] it was 30.7.

Take `Cc1ccc(C=C2c3ccccc3C(=O)c3ccccc32)cc1`: the Ratio in the test on A549 [1] was determined as 95.2; in the test with A549 [2] it was 91.8; with A549 [3] it was 90; in the test on A549 [4], 92.7; in the test with A549 [5] it was 84.7; in the test on P388 [6], 69. In addition, the Ratio with P388 [7] was found to be 42.4; in the test on P388 [8], 48.6; in the test on P388 [9], 49.3; in the test on P388 [10], 56.5.

With `O=C1c2ccccc2C(=Cc2cccc(Cl)c2)c2ccccc21`, the Ratio in the test with A549 [1] amounted to 97.1; with A549 [2] it was 92; in the test on A549 [3] it was 62.9; in the test with A549 [4] it was 5.7; with A549 [5], 12.5; in the test on P388 [6], 89.2. The Ratio in the test with P388 [7] is reported as 39.4; in the test on P388 [8], 11.9; with P388 [9], 19.3; in the test on P388 [10], 10.9.
